Test system: 3-Hydroxy-3-Methylglutaryl Coenzyme A (HMG-CoA) Reductase
Experiment: HMG-CoA reductase activity in liver microsomes of treated dogs
Format: in vivo, beagle dogs
Details: 14 Days; for HMG-CoA Reductase: n=8
Method: Healthy female and male beagle dogs in the age range of 8 to 10 months were used. The animals were acclimated for at least four weeks before dose administration. […] Animals in the control group (group 1) were given the same number of empty capsules as the animals of group 5 to treat all dose groups the same.
At the end of the study, animals were anesthetized, their livers removed and flash frozen and stored at −80 C. Homogenates of three gram liver tissue samples were prepared in 25 ml homogenization buffer [0.1 M potassium phosphate buffer, pH 7.2, containing 0.1 M sucrose, 50 mM KCl, 50 mM NaF, 5 mM ethylene glycol-bis((3-aminoethyl ether)-N,N,N′,N′-tetraacetic acid (EGTA), 1 mM EDTA, 3 mM dithiothreitol (DTT), and 1 mM phenylmethylsulfonyl fluoride (PMSF)]. A microsomal fraction was prepared by centrifugation at 10,000×g for ten minutes. The supernatant was subjected to centrifugation at 105,000×g for two hours. The microsomal fraction was resuspended in a 0.1 M Na tetrapyrophosphate buffer (pH 10), with 50 mM NaF, and 1 mM EDTA, and subjected to centrifugation for one hour at 105,000×g. The microsomal fraction was resuspended in the homogenization buffer, and assayed for protein content by Coomassie Protein Plus Assay reagent.
Microsomes (200 μg) were preincubated for 15 minutes at 37° C. in a total volume of […] buffer containing 0.1 M potassium phosphate (pH 7.4), 10 mM imidazole, 5 mM DTT, 10 mM EDTA, 3 mM NADP, 12 mM glucose-6-phosphate and 1 unit glucose-6-phosphate dehydrogenase (catalog number G4134, Sigma, St. Louis). The HMG-CoA reductase assay was initiated by the addition of 9 nmoles (0.5 μCi) DL-[3^14C] HMG-CoA (final assay volume was […]. The mixture was incubated for 60 minutes at 37° C. after which the assay was stopped with 25 μl of 6 N HCl. [^3H]Mevalonic acid (0.1 μCi), used as an internal standard to correct for incomplete recovery, was added to the reaction mixture along with 3 mg of unlabeled mevalonic acid lactone. The mixture was then incubated for an additional 30 minutes at 37° C. The [^14C]mevalonate that was formed and converted into mevalonic acid lactone during both incubations was isolated by thin layer chromatography. Each lane was scraped into 3 ml of InstaGel XF (Packard, Meriden, Conn.) and read on a Beckman Scintillator Counter. Reagents unless noted otherwise were obtained from Sigma, St. Louis, Mo. Isotopes were obtained from NEN Life Science Products, Boston, Mass.

Structure (SMILES): CCCCC1(CCCC)CS(=O)(=O)c2ccc(N(C)C)cc2[C@@H](c2ccc(OCc3ccc(C[N+]45CCN(CC4)CC5)cc3)cc2)[C@H]1O [LUM001]
- HMG-CoA Reductase, % change from vehicle group (1 mg/kg/day): (+128) %
- HMG-CoA Reductase (1 mg/kg/day): 164 ± 20 pmol/mg/min
- HMG-CoA Reductase, % change from vehicle group (4 mg/kg/day): (+242) %
- HMG-CoA Reductase (4 mg/kg/day): 246 ± 30 pmol/mg/min
- HMG-CoA Reductase, % change from vehicle group (12 mg/kg/day): (+449) %
- HMG-CoA Reductase (12 mg/kg/day): 395 ± 46 pmol/mg/min
- HMG-CoA Reductase, % change from vehicle group (30 mg/kg/day): (+656) %
- HMG-CoA Reductase (30 mg/kg/day): 544 ± 33 pmol/mg/min
